Source: patent US20030181449A1 (priority 2003, published 2003)
Where “and” joins values, the source holds several entries; their conditions need not be identical. Identical values can stand only once. Like-named read-outs stand apart in the source and are kept apart here.

What was measured:
[1] = target: T1, NMDA receptor glycine site (Rattus norvegicus, UniProt P35439); assay: Test A: Inhibition of binding of [3H]-MDL105,519 to brain membranes
T1 construct: The rat brain membranes used in the experiments were obtained from Analytical Biological Services Inc; tissue Analytical Biological Services Inc; host or cells: rat brain membranes (cerebral cortex and hippocampus, male Sprague Dawley rats)
Excerpt: Test A: Inhibition of Binding of [^3H]-MDL105,519:
Binding of compounds to the NMDA receptor glycine site may be assessed by measuring the ability of test compounds to inhibit the binding of tritiated MDL105,519 to brain membranes bearing the receptor.
Briefly, fresh brain tissue including cerebral cortex and hippocampus from male Sprague Dawley rats was homogenized in 0.32 M sucrose and centrifuged at low speed to separate cellular membranes from other cellular components. The membranes were then washed 3 times using deionized water, followed by treatment with 0.04% Triton X-100. Finally, membranes were washed six times in 50 mM Tris citrate buffer, pH 7.4, and frozen at −80° C. until use.
[^3H]MDL105,519 (72 Ci/mmol) was purchased from Amersham. Cold MDL105,519 was purchased from Sigma/RBI. […] On the day of the experiment, brain membranes were thawed at room temperature and suspended in 50 mM tris acetate buffer, pH 7.4 (“TAB”). Seventy-five micro grams per milliliter protein (by using the BioRad dye) were used for competition binding. The experiments were carried out using 96-well plates. […] Non specific binding was determined by using 100 μM of unlabeled MDL105,519. […] After incubation, unbound [^3H]MDL105,519 was removed by filtration onto GF/B Unifilter plates using a Packard harvester. Filters were washed four times with ice cold TAB (total of 1.2 mL buffer). The plates were dried overnight at room temperature and bound radioactivity was measured on a Packard TopCount after the addition of 45 μL per well of the MICROSCINT O.
Human Brain Membranes: Human brain membranes were obtained from Analytical Biological Services Inc., and assays were performed as described for rat membranes.
Data analysis: Data was analyzed using a Microsoft Excel spreadsheet and GraphPad Prizm software and potency of compounds is expressed as the Ki (nM).

[2] = test system: formalin-induced nociceptive behaviors in rats; assay: Test B: Formalin test (formalin-induced paw flinches); format: in vivo, rat; settings: dose 200 (unit not given), dosed three hours prior to formalin
Excerpt: The Formalin test is an assay that assesses the capacity of a compound to inhibit formalin-induced nociceptive behaviors in rats (D. Dubuisson, et al., Pain 4, 161-174 (1977); H. Wheeler-Aceto et al., Psychopharmacology 104, 3544 (1991); T. J. Coderre, et al., Pain 54, 43-50 (1993)). In the test, two distinctive phases of formalin-induced behaviors are observed. A first phase response, caused by acute nociception to the noxious chemical (formalin) injected into the paw, occurs between zero and five minutes. A quiescent period of 5 to 15 min post injection follows. After the quiescent period a second phase response, caused by sensitization of the central neurons in the dorsal horn, occurs after 15 minutes and lasts up to 60 minutes. Sensitization of the central neurons in the spine augments a noxious afferent input and causes a stronger pain barrage to be transmitted to the brain. Therefore, inhibition of the second phase response indicates a central mechanism of drug action.
The procedure for the formalin test is as follows: male rats are placed in a plexiglass chamber and observed for 30-45 min. to observe their baseline activity. Animals are either pretreated with vehicle or with different doses of a test compound. Animals are dosed with vehicle or test compound three hours prior to injection of 0.05 mL of sterile 1% formalin under the dorsal skin of a hind paw. The number of paw flinches (responses) during the first phase (0-5 min.) and the second phase (20-35 min.) are scored and recorded. Flinch response is compared with the mean score of a saline control group and calculated as percentage inhibition. The ED50 is the dose of compound which produces 50% inhibition of nociceptive response in the first or second phase response. First phase responses may be inhibited by compounds that act peripherally and by compounds that act centrally. Second phase response are inhibited by centrally active compounds.
Student's t-test was used for statistical analysis to determine the significance of compound effects. Data are reported as a dose that yielded a % inhibition of a response.

[3] = test system: CCI rats (thermal hyperalgesia); assay: Test C: Neuropathic pain model (Chronic Constriction Injury), thermal hyperalgesia, paw withdrawal latency; format: in vivo, rat; settings: oral; for Test C (% Inh.): percent decrease in hyperalgesia: at the MED; for Test C MED (minimum effective dose): three times daily for 5 days
Excerpt: Test C: Neuropathic Pain Model (Chronic Constriction Injury):
The anti-hyperalgesic properties of a compound may be tested with the Chronic Constriction Injury (“CCI”) model. The test is a model for neuropathic pain associated with nerve injuries that can arise directly from trauma and compression, or indirectly from a wide range of diseases such as infection, cancer, metabolic conditions, toxins, nutritional deficiencies, immunological dysfunction, and musculoskeletal changes. In the model a unilateral peripheral hyperalgesia is produced in rats by nerve ligation (G. J. Bennett, et al., Pain 33, 87-107 (1988)).
Procedurally, Sprague-Dawley rats (250-350 g) are anesthetized with sodium pentobarbital and the common sciatic nerve is exposed at the level of the mid thigh by blunt dissection through the biceps femoris. A section of nerve (about 7 mm), proximal to the sciatic trifucation, is freed of tissue and ligated at four positions with chromic gut suture. The suture is tied with about 1 mm spacing between ligatures. The incision is closed in layers and the animals are allowed to recuperate. Thermal hyperalgesia is measured using a paw-withdrawal test (K. Hargreaves, et al., Pain 32, 77-88 (1988)). To perform the test, animals are habituated on an elevated glass floor. A radiant heat source is aimed at the mid-plantar hindpaw (sciatic nerve territory) through the glass floor with a 20 second cut-off used to prevent injury to the skin. The latencies for the withdrawal reflex in both hind paws are recorded.
Injured paws with ligated nerves show shorter paw withdrawal latencies compared to the uninjured or sham operated paws. Responses to test compounds are evaluated at different times after oral administration to determine the onset and duration of compound effect. When performing the test, groups of CCI rats receive either vehicle or the test compound orally three times daily for 5 days. Paw withdrawal latencies are measured each day 10 min before and 2 or 3 hr. after the first daily dose. Compound efficacy is expressed as mean percentage decrease of hyperalgesia compared to that of vehicle-treated animals, calculated as follows:
(Mean of vehicle group−Mean of compound group)×100/(Mean of vehicle group).
Data analysis was performed by the multiple means comparison test (Dunnett's test) and results are expressed and compound potencies are expressed as the MED (minimum effective dose), in mg/Kg/day, that yields a percent (%) decrease in hyperalgesia that is statistically significant.

[4] = inhibition of 1.2 nM [3H]MDL105,519 binding, brain membranes (rat or human not given)

SMILES	Ki [1, 4]	further results
CON(C)C(=O)c1cccc(Cn2nc(O)c3[nH]c4cc(Cl)ccc4c(=O)c3c2=O)c1	65 nM	–
CC(C)NC(=O)c1ccc(Cn2nc(O)c3[nH]c4cc(Cl)ccc4c(=O)c3c2=O)cc1 [EX. 31, 7-chloro-4-hydroxy-2-(4-isopropylcarboxamide)phenylmethyl-1,2,5,10-tetrahydropyridazino[4,5-b]quinoline-1,10-dione]	41 nM	–
O=C(NCc1ccco1)c1ccc(Cn2nc(O)c3[nH]c4cc(Cl)ccc4c(=O)c3c2=O)cc1 [Ex. 3, 7-Chloro-4hydroxy-2-(4-(furan-2-ylmethyl)aminocarbonyl)-benzyl-1,2,5,10-tetrahydropyridazino[4,5-b]quinoline-1,10-dione]	–	Ki [1]: 153 nM; Test B First phase Dose (% Inh.): % inhibition of nociceptive response ([2]; first phase (0-5 min)): 200 (33%); Test B Second phase Dose (% Inh.): % inhibition of nociceptive response ([2]; second phase (20-35 min)): 200 (−18%); Test C (% Inh.): percent decrease in hyperalgesia [3]: 96%; Test C MED (minimum effective dose) [3]: 30 mg/kg/day
O=c1c2ccc(Cl)cc2[nH]c2c(O)nn(Cc3ccc4nc[nH]c4c3)c(=O)c12 [Ex. 5, 7-Chloro-4-hydroxy-2-(benzimidazol-5-ylmethyl)-1,2,5,10-tetrahydropyridazino[4,5-b]quinoline-1,10-dione methanesulfonate]	117 nM	–
Cc1cc(Cn2nc(O)c3[nH]c4cc(Cl)ccc4c(=O)c3c2=O)ccc1O [Ex. 6, 7-Chloro-4-hydroxy-2-(4-hydroxy-3-methyl-benzyl)-1,2,5,10-tetrahydropyridazino[4,5-b]quinoline-1,10-dione]	67.9 nM and 62.5 nM	–
CSc1ccccc1Cn1nc(O)c2nc3cc(Cl)ccc3c(O)c2c1=O [Ex. 7, 7-Chloro-4,10-dihydroxy-2-[(2-methylthio)phenylmethyl]-2-hydropyridazino[4,5-b]quinoline-1-one]	111 nM	melting point: 290 to 292 °C
COC(=O)c1c(OC)cc(Cn2nc(O)c3[nH]c4cc(Cl)ccc4c(=O)c3c2=O)cc1OC [Ex. 8, 7-Chloro-2-(4-(2,6-dimethoxy)methylbenzoate)4hydroxy-1,2,5,10-tetrahydropyridazino[4,5-b]quinoline-1,10-dione]	35 nM	–
CC(C)OC(=O)c1ccc(Cn2nc(O)c3[nH]c4cc(Cl)ccc4c(=O)c3c2=O)cc1 [Ex. 9, 7-Chloro-4-hydroxy-2-(4-iso-propoxycarbonylbenzyl)-1,2,5,10-tetrahydropyridazino[4,5-b]quinoline-1,10-dione]	91 nM	–
CN(C)C(=O)Nc1ccc(Cn2nc(O)c3[nH]c4cc(Cl)ccc4c(=O)c3c2=O)cc1 [Ex. 11, 7-chlorohydroxy-2-(4-dimethylaminocarboxamide)phenylmethyl-1,2,5,10-tetrahydropyridazino[4,5-b]quinoline-1,10-dione]	–	Test C (% Inh.): percent decrease in hyperalgesia [3]: 80%; Test C MED (minimum effective dose) [3]: 15 mg/kg/day
O=C(Nc1ccc(Cn2nc(O)c3[nH]c4cc(Cl)ccc4c(=O)c3c2=O)cc1)N1CCCC1 [Ex. 13, 7-chloro-4-hydroxy-2-(4pyrrolidinylcarboxamide)phenylmethyl-1,2,5,10-tetrahydropyridazino[4,5-b]quinoline-1,10-dione]	67.5 nM	–
O=C(Nc1cccc(Cn2nc(O)c3[nH]c4cc(Cl)ccc4c(=O)c3c2=O)c1)N1CCCC1 [Ex. 15, 7-Chloro-4-hydroxy-2-(3-pyrrolidinylcarboxamide)phenylmethyl-1,2,5,10-tetrahydropyridazino[4,5-b]quinoline-1,10-dione]	15.6 nM	–
O=C(Nc1ccccc1)Nc1cccc(Cn2nc(O)c3[nH]c4cc(Cl)ccc4c(=O)c3c2=O)c1 [Ex. 18, 7-chloro-4-hydroxy-2-(3-phenylaminocarboxamide)phenylmethyl-1,2,5,10-tetrahydropyridazino[4,5-b]quinoline-1,10-dione]	79.9 nM	–
O=C(Nc1cccc(Cn2nc(O)c3[nH]c4cc(Cl)ccc4c(=O)c3c2=O)c1)NC1CCCCC1 [Ex. 19, 7-chloro-4-hydroxy-2-(3-cyclohexylaminocarboxamide)phenylmethyl-1,2,5,10-tetrahydropyridazino[4,5-b]quinoline-1,10-dione]	33.3 nM	–
O=c1c2ccc(Cl)cc2[nH]c2c(O)nn(Cc3ccc(I)cc3)c(=O)c12 [Ex. 20, 7-Chloro-4-hydroxy-2-(4-iodophenylmethyl)-1,2,5,10-tetrahydropyridazino[4,5-b]quinoline-1,10-dione]	199 nM	–
O=c1c2ccc(Cl)cc2[nH]c2c(O)nn(Cc3ccc(C#CCO)cc3)c(=O)c12 [Ex. 21]	1 nM	–
COCCNC(=O)c1ccc(Cn2nc(O)c3[nH]c4cc(Cl)ccc4c(=O)c3c2=O)cc1 [Ex. 23]	141 nM	–
CNC(=O)c1cccc(Cn2nc(O)c3[nH]c4cc(Cl)ccc4c(=O)c3c2=O)c1 [Ex. 25, 7-Chloro-4-hydroxy-2-[3-(methylaminocarbonyl)-benzyl]-1,2,5,10-tetrahydropyridazino[4,5-b]quinoline-1,10-dione]	126 nM	–
COCCN(CCOC)C(=O)c1cccc(Cn2nc(O)c3[nH]c4cc(Cl)ccc4c(=O)c3c2=O)c1 [Ex. 27, 7-Chloro-4-hydroxy-2-[3-(di-(2-methoxy)ethyl)aminocarbonylbenzyl]-1,2,5,10-tetrahydropyridazino[4,5-b]quinoline-1,10-dione]	191 nM	–
O=C(c1ccc(Cn2nc(O)c3[nH]c4cc(Cl)ccc4c(=O)c3c2=O)cc1)N1CCOCC1 [Ex. 29, 7-Chloro-4-hydroxy-2-[4-(morpholine-4-carbonyl)-benzyl]-1,2,5,10-tetrahydropyridazino[4,5-b]quinoline-1,10-dione]	88 nM	–
CC(=O)Nc1ccc(Cn2nc(O)c3[nH]c4cc(Cl)ccc4c(=O)c3c2=O)cc1 [Ex. 30, 7-Chloro-4-hydroxy-2-[4-(methylcarbonyl-amino)-benzyl]-1,2,5,10-tetrahydropyridazino[4,5-b]quinoline-1,10-dione]	98 nM	–
